This note sets out measurements from ChEMBL document CHEMBL1149799, “Bioactive peroxides as potential therapeutic agents” (Eur J Med Chem, 2008).

Values after ≈ are worked out from the molar mass of the structure shown.

Experiment [1] has as its target Aldo-keto reductase family 1 member B1 (Rattus norvegicus, UniProt P07943). Description: Inhibition of rat lens aldose reductase.
The next experiment relates to SNU-354. Briefly: Cytotoxicity against human SNU354 cells. It counts as functional, cell-based.
Experiment [2] in a line: Cytotoxicity against mouse sarcoma 180 cells. It counts as functional, cell-based.
A further experiment relates to SNU1. Description: Cytotoxicity against human SNU1 cells. The class given is functional, cell-based.
Experiment [3] can be described thus: Cytotoxicity against human SNUC4 cells. The class given is functional, cell-based. The note with it: SNU-C4.
The test system of the next experiment is Jurkat. Briefly: Cytotoxicity against human Jurkat cells at 10 ug/mL. It counts as functional.
Experiment [4] in a line: Cytotoxicity against human RPM18226 cells at 10 ug/mL. It counts as functional. The note with it: RPMI-8226.
The next experiment deals with HL-60. Briefly: Cytotoxicity against human HL60 cells at 10 ug/mL. The class given is functional.
Experiment [5] can be described thus: Cytotoxicity against human WM1341 cells at 10 ug/mL. It counts as functional.
The test system of the next experiment is K562. Description: Cytotoxicity against human K562 cells at 10 ug/mL. It counts as functional.
The nature of experiment [6]: Cytotoxicity against human PLC/PRF/5 cells. It counts as functional. Conditions: read-out: ED50 (the source's name).
The test system of a further experiment is KB. Briefly: Cytotoxicity against human KB cells. The note with it: Homo sapiens, KB; read-out: ED50 (the source's name). It counts as functional, cell-based.
Another experiment has as its system SNB-19. Description: Cytotoxicity against human SNB19 cells. It counts as functional.
The next experiment concerns KM12. Description: Cytotoxicity against human KM12 cells. The class given is functional, cell-based.
A further experiment deals with HT-29. Description: Cytotoxicity against human HT29 cells. The class given is functional.
A short description of experiment [7]: Cytotoxicity against human K652 cells. The class given is functional.
The test system of a further experiment is MOLT-4. Description: Cytotoxicity against human MOLT4 cells.
The subject of the next experiment is OVCAR-3. Briefly: Cytotoxicity against human OVCAR-3 cells. It counts as functional, cell-based.
In another experiment the test system is CAKI-1. Briefly: Cytotoxicity against human CAKI1 cells. It counts as functional.
For another experiment, the system named is SNB-75. Description: Cytotoxicity against human SNB75 cells. The class given is functional, cell-based.
In another experiment the test system is T47D. Description: Cytotoxicity against human T47D cells. It counts as functional.
In another experiment the test system is OVCAR-5. Description: Cytotoxicity against human OVCAR5 cells. It counts as functional, cell-based.
A further experiment deals with SK-MEL-2. Briefly: Cytotoxicity against human SK-MEL-2 cells. The class given is functional.
A further experiment has as its system MDA-N. Briefly: Cytotoxicity against human MDA-N cells. It counts as functional.
A further experiment concerns RXF 393. Description: Cytotoxicity against human RXF393 cells. It counts as functional.
The test system of a further experiment is A549. Description: Cytotoxicity against human A549 cells. The class given is functional, cell-based. The note with it: Homo sapiens, A549.
The subject of another experiment is SK-MEL-5. Briefly: Cytotoxicity against human SK-MEL-5 cells. It counts as functional.
A further experiment concerns IGROV-1. Description: Cytotoxicity against human IGROV1 cells. The class given is functional.
Experiment [8] can be described thus: Cytotoxicity against human RPMI8266 cells. It counts as functional.
A further experiment deals with HCT-15. Briefly: Cytotoxicity against human HCT15 cells. The class given is functional, cell-based.
The test system of another experiment is 786-0. Description: Cytotoxicity against human renal 7860 cells by soft agar assay. It counts as functional.
Experiment [9] can be described thus: Cytotoxicity against mouse Ehrlich Ascites carcinoma by […] assay. The class given is functional.
The next experiment deals with UO-31. Description: Cytotoxicity against human UO31 cells. The class given is functional.
In the next experiment the test system is MDA-MB-435. Description: Cytotoxicity against human MDA-MB-435 cells. The class given is functional.
The nature of experiment [10]: Cytotoxicity against human CCRF-GEM cells. It counts as functional.
The next experiment relates to NCI-H23. Description: Cytotoxicity against human NCI-H23 cells. It counts as functional, cell-based.
The test system of a further experiment is SN12C. Description: Cytotoxicity against human SN12C cells. It counts as functional.
In a further experiment the test system is ACHN. Briefly: Cytotoxicity against human ACHN cells. The class given is functional, cell-based.
The next experiment has as its system HCT-116. Description: Cytotoxicity against human HCT116 cells. It counts as functional, cell-based.
The subject of the next experiment is HOP-92. Description: Cytotoxicity against human HOP92 cells. The class given is functional.
A further experiment deals with NCI-H322M. Description: Cytotoxicity against human NCI-H322M cells. It counts as functional.
Experiment [11] in a line: Cytotoxicity against mouse Ehrlich Ascites carcinoma by clonogenic assay. It counts as functional.
Another experiment concerns UACC-257. Description: Cytotoxicity against human UACC257 cells. It counts as functional.
Experiment [12] can be described thus: Cytotoxicity against human MCF7/ADR-RES cells. Conditions: NCI/ADR-RES. It counts as functional.
The test system of a further experiment is SK-OV-3. Briefly: Cytotoxicity against human SK-OV-3 cells. It counts as functional, cell-based.
A further experiment concerns TK-10. Briefly: Cytotoxicity against human TK10 cells. The class given is functional.
The subject of another experiment is NCI-H460. Description: Cytotoxicity against human NCI-H460 cells. Conditions: Homo sapiens, NCI-H460; read-out: GI50. The class given is functional, cell-based.
The next experiment deals with COLO 205. Briefly: Cytotoxicity against human COLO205 cells.
In a further experiment the test system is LOX IMVI. Briefly: Cytotoxicity against human LOXI MVI cells. The class given is functional, cell-based.
Another experiment relates to OVCAR-8. Briefly: Cytotoxicity against human OVCAR8 cells. The class given is functional, cell-based.
A further experiment concerns SW-620. Briefly: Cytotoxicity against human SW620 cells. It counts as functional.
For another experiment, the system named is HCC 2998. Briefly: Cytotoxicity against human HCC2998 cells. It counts as functional, cell-based.
Another experiment has as its system PC-3. Briefly: Cytotoxicity against human PC3 cells. The class given is functional, cell-based. The note with it: Homo sapiens, PC-3.
Another experiment relates to DU-145. Briefly: Cytotoxicity against human DU145 cells. Conditions: Homo sapiens, DU-145; read-out: GI50. The class given is functional, cell-based.
The subject of the next experiment is MCF7. Description: Cytotoxicity against human MCF7 cells. It counts as functional, cell-based. Conditions: Homo sapiens, MCF7; read-out: GI50.
Experiment [13] can be described thus: Cytotoxicity against human CFUGM. The class given is functional. Conditions: CFU-GM.
Another experiment relates to BT-549. Briefly: Cytotoxicity against human BT-549 cells. It counts as functional.
Another experiment has as its system U-251. Description: Cytotoxicity against human U251 cells. The class given is functional, cell-based.
Another experiment has as its system HOP-62. Description: Cytotoxicity against human HOP62 cells. It counts as functional.
Another experiment deals with OVCAR-4. Briefly: Cytotoxicity against human OVCAR4 cells. The class given is functional, cell-based.
The subject of the next experiment is SF-295. Briefly: Cytotoxicity against human SF295 cells. The class given is functional, cell-based.
A short description of experiment [14]: Cytotoxicity against human HB60 cells. It counts as functional.
For the next experiment, the system named is A498. Briefly: Cytotoxicity against human A498 cells. The class given is functional.
The next experiment relates to EKVX. Briefly: Cytotoxicity against human EKVX cells. It counts as functional.
A short description of experiment [15]: Cytotoxicity against human RES MDA-MB-231/ATCC cells. It counts as functional.
The subject of the next experiment is SK-MEL-28. Briefly: Cytotoxicity against human SK-MEL-28 cells. The class given is functional.
A further experiment has as its system UACC-62. Briefly: Cytotoxicity against human UACC62 cells. It counts as functional.
A short description of experiment [16]: Cytotoxicity against human Anip-973 cells. It counts as functional, cell-based.
Experiment [17] is described as follows: Cytotoxicity against human Bel-7721 cells. The class given is functional, cell-based.

As a reminder, the IC50 is the concentration needed to halve the response being measured. Higher therefore signals a need for much substance. As usually defined, the inhibition is the change of the read-out against control, counted positive when it falls. Low values mean little suppression, high ones strong suppression. Broadly, the GI50 is the concentration that inhibits growth by half.

Take `CC(C)[C@@H](C)/C=C/[C@@H](C)[C@H]1CC[C@@H]2[C@]1(C)CC[C@H]1[C@]23C=C[C@]2(C[C@@H](O)CC[C@]12C)OO3` [ERGOSTEROL PEROXIDE]: the IC50 in experiment [1] is 35.9 µM; in the experiment with SNU-354, 158 µM; in experiment [2], 74.1 µM; in the experiment on SNU1 it was 18.7 µM; in experiment [3] it was 84.6 µM.

Regarding `CC(C)[C@@H](C)/C=C/[C@@H](C)[C@H]1CC[C@@H]2[C@]1(C)CC[C@H]1[C@]23C=C[C@]2(C[C@@H](O[C@@H]4O[C@H](CO)[C@@H](O)[C@H](O)[C@H]4O)CC[C@]12C)OO3`, the inhibition at 10 µg/mL (with Jurkat; in [4]; with HL-60; in experiment [5]; in the experiment with K562) was 10% each time.

Regarding `CC(C)C(C)/C=C/C(C)[C@H]1CC[C@@H]2[C@]1(C)CC[C@H]1[C@]23C=C[C@]2(C[C@@H](O)CC[C@]12C)OO3` (stereo not given in full), the EC50 in experiment [6] is 11 µg/mL (≈ 25.6 µM); with KB it was 9.97 µg/mL (≈ 23.3 µM).

Turning to `C[C@H]1[C@H](O[C@@H]2O[C@@H]3O[C@]4(C)CC[C@H]5[C@H](C)CC[C@@H]([C@H]2C)[C@@]35OO4)O[C@@H]2O[C@]3(C)CC[C@H]4[C@H](C)CC[C@@H]1[C@@]24OO3`, the GI50 was determined as 1.71 µM in the experiment on SNB-19; 0.033 µM with KM12; 0.05 µM in the experiment with HT-29; 0.068 µM in experiment [7]; 0.057 µM in the experiment on MOLT-4; 0.46 µM in the experiment with OVCAR-3. Moreover, the GI50 in the experiment on CAKI-1 came to 0.28 µM; in the experiment on SNB-75, 0.22 µM; with T47D, 0.03 µM; in the experiment with OVCAR-5, 0.39 µM; in the experiment with SK-MEL-2, 0.5 µM; in the experiment with MDA-N, 0.59 µM. Also, the GI50 was determined as 0.47 µM with RXF 393; 0.098 µM with A549; 0.053 µM with SK-MEL-5; 1.05 µM in the experiment with IGROV-1; 0.013 µM in experiment [8]; 0.024 µM in the experiment on HCT-15. Also, the GI50 with 786-0 is 0.37 µM; with UO-31, 0.063 µM; in the experiment on MDA-MB-435, 0.061 µM; in experiment [10] it was 0.045 µM; in the experiment on NCI-H23, 0.046 µM; with SN12C it was 0.28 µM. The GI50 was determined as 0.1 µM in the experiment on ACHN; 0.019 µM in the experiment on HCT-116; 0.121 µM in the experiment on HOP-92; 10.8 µM with NCI-H322M; 0.093 µM with UACC-257; 0.22 µM in experiment [12]. Moreover, the GI50 worked out at 0.48 µM in the experiment on SK-OV-3; 0.24 µM with TK-10; 0.068 µM with NCI-H460; 0.044 µM with COLO 205; 0.03 µM with LOX IMVI; 0.09 µM in the experiment on OVCAR-8. Besides, the GI50 in the experiment on SW-620 amounted to 0.043 µM; in the experiment on HCC 2998, 0.45 µM; in the experiment with PC-3, 0.015 µM; with DU-145, 5.1 µM; in the experiment on MCF7 it was 0.11 µM; in the experiment with BT-549, 0.058 µM. Moreover, the GI50 with U-251 turned out to be 0.065 µM; in the experiment on HOP-62 it was 10.2 µM; with OVCAR-4, 0.29 µM; in the experiment on SF-295 it was 0.59 µM; in experiment [14], 0.028 µM; in the experiment with A498 it was 11.6 µM. Also, the GI50 with EKVX was 0.076 µM; in experiment [15], 0.4 µM; in the experiment with SK-MEL-28, 12.3 µM; with UACC-62, 0.081 µM. Further, the IC50 in experiment [9] was determined as 3.6 µM; in experiment [11], 55.6 µM; in [13], 3.6 µM.

Regarding `COC1=CC(=O)c2c(O)c(OC)c3c(c2C1=O)-c1c2c(c(O)c(OC)c1[C@@H](C(C)=O)[C@@](C)(O)C3)C(=O)C=C(OC)C2=O` [HYPOCRELLIN D], the IC50 in experiment [16] was found to be 38.4 µg/mL (≈ 66.4 µM); in the experiment with A549, 8.8 µg/mL (≈ 15.2 µM); in experiment [17], 1.8 µg/mL (≈ 3.11 µM).
